Molecules are shown by their SMILES.

For one test, the target named is T1, 5-HT1A receptor (Rattus norvegicus, UniProt P19327).
T1 sequence (P19327 1-422): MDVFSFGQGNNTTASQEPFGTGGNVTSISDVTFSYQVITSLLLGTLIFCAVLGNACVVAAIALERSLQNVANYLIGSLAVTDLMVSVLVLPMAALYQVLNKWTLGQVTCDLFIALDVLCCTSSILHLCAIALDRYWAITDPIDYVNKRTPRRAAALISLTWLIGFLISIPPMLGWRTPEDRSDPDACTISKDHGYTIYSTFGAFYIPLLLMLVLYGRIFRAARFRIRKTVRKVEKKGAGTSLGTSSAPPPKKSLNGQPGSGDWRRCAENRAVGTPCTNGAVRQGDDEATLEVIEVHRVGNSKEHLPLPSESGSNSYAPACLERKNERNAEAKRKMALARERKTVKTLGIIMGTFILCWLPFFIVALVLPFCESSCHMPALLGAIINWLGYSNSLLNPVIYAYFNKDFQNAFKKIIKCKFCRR
Put plainly: Generalization to the discriminative stimulus properties induced by 8-OH-DPAT in rats (8-OH-DPAT cue, agonism). Further details: from tissue; host or cells: living male Wistar rat (in vivo, endogenous receptor). The format is in vivo, rat (male Wistar). The settings on record: rat, sc; usually 30 or 45 min before test. An excerpt:
Generalization to the Discriminative Stimulus Properties Induced by 8-OH-DPAT in Rats
This test is used to determine the 5-HT1A receptor agonistic effect of a test compound in vivo. A related method is described by Tricklebank, M. D., supra; Amt, J. Pharmacology & Toxicology, 1989, 64, 165.
The per cent drug responce obtained for each dose of test compound is used to calculate ED50 values by log-probit analysis.
Turning to `CC1(C)Cc2cccc(N3CCN(CCN4CCN(c5ccccc5)C4=O)CC3)c2O1` [Compound 2n, 1-[2-[4-(2,3-Dihydro-2,2-dimethylbenzofuran-7-yl)-1-piperazinyl]ethyl]-3-phenyl-2-imidazolidinone], it took a dose of 0.13 µmol/kg to reach the 50% effect level (ED50). As for `O=C1N(CCN2CCN(c3cccc4ccoc34)CC2)CCN1c1ccccc1` [Compound 2m, 1-[2-[4-Benzofuran-7-yl-1-piperazinyl]ethyl]-3-phenyl-2-imidazolidinone], it took a dose of 2.3 µmol/kg to reach the 50% effect level (ED50).

The target of another test is T1, 5-HT1A receptor. Put plainly: Inhibition of 3H-8-OH-DPAT binding to serotonin 5-HT1A receptors in rat brain in vitro. Further details: 5-HT1A receptors in membranes from rat brain minus cerebellum; from tissue; host or cells: rat brain minus cerebellum, membranes. The settings on record: 3H-8-OH-DPAT 1 nM; membranes from rat brain minus cerebellum; read-out: IC50, 3H 8-OH-DPAT binding. As to the method:
Inhibition of ^3 H-8-OH-DPAT Binding to Serotonin 5-HT1A Receptors in Rat Brain in vitro.
By this method the inhibition by drugs of the binding of the 5-HT1A agonist 3H-8-OH-DPAT (1 nM) to 5-HT1A receptors in membranes from rat brain minus cerebellum is determined in vitro . Accordingly, this is a test for affinity for the 5-HT1A receptor. The assay was performed as described by Hyttel et al., Drug Dev. Res. 1988, 15, 389-404.
In the case of `CC1(C)Cc2cccc(N3CCN(CCCCN4CCN(c5cccc6ccccc56)C4=O)CC3)c2O1` [Compound 2jj, 1-[4-[4-(2,3-Dihydro-2,2-dimethylbenzofuran-7-yl)-1-piperazinyl]-1-butyl]-3-(1-naphtyl)-2-imidazolidinone], the IC50 was found to be 1.1 nM. Consider `O=C1N(CCCCN2CCN(c3cc(Cl)cc4cc(-c5ccccc5)oc34)CC2)CCN1C1CCCCC1` [Compound 2hh, 1-[4-[4-(5-Chloro-2-phenylbenzofuran-7-yl)-1-piperazinyl]-1-butyl]-3-cyclohexyl-2-imidazolidinone], for which the half-maximal inhibitory concentration (IC50) was determined as 130 nM. With `CC1(C)COc2c(N3CCN(CCN4CCN(C5CCCC5)C4=O)CC3)cccc21` [Compound 14b], the IC50 was 38 nM.

As for `O=C1N(CCCN2CCN(c3cccc4c3OCCO4)CC2)CCN1C1CCCCC1` [Compound 4c, 1-[3-[4-(1,4-Benzodioxan-5-yl)-1-piperazinyl]-1-propyl]-3-cyclohexyl-2-imidazolidinone], the 50% inhibitory concentration (IC50) amounted to 19 nM. In the case of `CCN1CCN(CCN2CCN(c3cccc4c3OCCO4)CC2)C1=O` [Compound 2l, 1-[2-[4-(1,4-Benzodioxan-5-yl)-1-piperazinyl]ethyl]-3ethyl-2-imidazolidinone], the IC50 worked out at 72 nM. For the compound `O=C1N(CCN2CCN(c3cccc4c3OCC4)CC2)CCN1c1ccc(F)cc1` [Compound 2i, 1-[2-[4-(2,3-Dihydrobenzofuran-7-yl)-1-piperazinyl]ethyl]-3-(4-fluorophenyl)-2-imidazolidinone], the IC50 was 30 nM. As for `O=C1N(CCN2CCN(c3cccc4ccsc34)CC2)CCN1C1CCCC1` [Compound 2aa, 1-[2-[4-Benzo[b]thiophen-7-yl-1-piperazinyl]ethyl]-3-cyclopentyl-2-imidazolidinone], the half-maximal inhibitory concentration (IC50) amounted to 11 nM. For the compound `O=C1N(CCN2CCN(c3cccc4c3OCCO4)CC2)CCN1C12CC3CC(CC(C3)C1)C2` [Compound 2q, 1-Adamantyl-3-[2-[4-(1,4-benzodioxan-5-yl)-1-piperazinyl]ethyl]-2-imidazolidinone], the half-maximal inhibitory concentration (IC50) was 13 nM. On to `O=C1N(CCN2CCN(c3cccc4occc34)CC2)CCN1c1ccccc1` [Compound 2r, 1-[2-(4-Benzofuran-4-yl-1-piperazinyl)ethyl]-3-phenyl-2-imidazolidinone], for which the 50% inhibitory concentration (IC50) is 23 nM.

For `O=C1N(CCN2CCN(c3cccc4cc[nH]c34)CC2)CCN1C1CCCC1` [Compound 2u, 1-Cyclopentyl-3-[2-[4-(7-indolyl)-1-piperazinyl]ethyl]-2-imidazolidinone], the half-maximal inhibitory concentration (IC50) was determined as 110 nM.

As for `CC1(C)Cc2cccc(N3CCN(CCCN4CCN(c5ccccc5)C4=O)CC3)c2O1` [Compound 2ff, 1-[3-[4-(2,3-Dihydro-2,2-dimethylbenzofuran-7-yl)-1-piperazinyl]-1-propyl]-3-phenyl-2-imidazolidinone], the IC50 is 6.6 nM. For `O=C1N(CCN2CCN(c3cccc4cc(-c5ccccc5)oc34)CC2)CCN1C1CCCC1` [Compound 14a, 1-Cyclopentyl-3-[2-[4-(2-phenylbenzofuran-7-yl)-1-piperazinyl]ethyl]-2-imidazolidinone], the IC50 turned out to be 9.7 nM. Regarding `CC(C)(C)N1CCN(CCN2CCN(c3cccc4c3OCCO4)CC2)C1=O` [Compound 2ee], the IC50 turned out to be 43 nM. On the same count and under the same terms, the result for `O=C1N(CCN2CCN(c3cccc4[nH]ccc34)CC2)CCN1c1ccccc1` [Compound 2z, 1-[2-[4-(4-Indolyl)-1-piperazinyl]ethyl]-3-phenyl-2-imidazolidinone] reads 34 nM; that for `CCOC(=O)c1cc2cccc(N3CCN(CCN4CCN(c5ccccc5)C4=O)CC3)c2[nH]1` [Compound 2j, Ethyl 7-[4-[2-(3-phenyl-2-imidazoidin-2-on-1-yl)ethyl]-1-piperazinyl]-2-indolyl carboxylate], 53 nM. Consider `O=C1N(CCCN2CCN(c3cccc4c3OCCO4)CC2)CCN1Cc1ccccc1` [Compound 4a, 1-[3-[4-(1,4-Benzodioxan-5-yl)-1-piperazinyl]-1-propyl]-3-benzyl-2-imidazolidinone], for which the half-inhibitory concentration (IC50) was 18 nM. Consider `O=C1N(CCN2CCN(c3cccc4ccccc34)CC2)CCN1c1ccccc1` [Compound 2k, 1-[2-[4-(1-Naphtyl)-1-piperazinyl]ethyl]-3-phenyl-2-imidazolidinone], for which the 50% inhibitory concentration (IC50) was found to be 15 nM. On to `CC1(C)Cc2cccc(N3CCN(CCCCN4CCN(c5ccc(F)cc5)C4=O)CC3)c2O1` [Compound 2dd, 1-[4-[4-(2,3-Dihydro-2,2-dimethylbenzofuran-7-yl)-1-piperazinyl]-1-butyl]-3-(4-fluorophenyl)-2-imidazolidinone], for which the concentration for half-maximal inhibition (IC50) turned out to be 0.5 nM.

Turning to `CC1(C)Cc2cccc(N3CCN(CCCCCCN4CCN(C5CCCC5)C4=O)CC3)c2O1` [Compound 2nn, 1-Cyclopentyl-3-[6-[4-(2,3-dihydro-2,2-dimethylbenzofuran-7-yl)-1-piperazinyl]-1-hexyl]-2-imidazolidinone], the IC50 is 5.4 nM. Same read-out and setting: under `CC1(C)COc2c(N3CCN(CCN4CCN(C5CCCC5)C4=O)CC3)cc(Cl)cc21` [Compound 2oo] stands 44 nM. As to `O=C1N(CCN2CCN(c3cccc4c3ccn4-c3ccc(F)cc3)CC2)CCN1C1CCCC1` [Compound 7a, 1-Cyclopentyl-3-[2-[4-[1-(4-fluorophenyl)-4-indolyl]-1-piperazinyl]ethyl]-2-imidazolidinone], the IC50 is 51000 nM.

Regarding `O=C1N(CCN2CCN(c3cccc4cc[nH]c34)CC2)CCN1c1ccccc1` [Compound 2v, 1-[2-[4-(7-Indolyl)-1-piperazinyl]ethyl]-3-phenyl-2-imidazolidinone], the IC50 was 71 nM.

Take `O=C1N(CCN2CCN(c3cccc4nsnc34)CC2)CCN1c1ccccc1` [Compound 2h, 4-[4-[2-(3-Phenylimidazolidin-2-on-1-yl)ethyl]-1-piperazinyl]-2,1,3-benzothiadiazole]: the IC50 is 28 nM. Take `CC1(C)Cc2cccc(N3CCN(CCN4CCN(c5ccccc5)C4=O)CC3)c2O1` [Compound 2n, 1-[2-[4-(2,3-Dihydro-2,2-dimethylbenzofuran-7-yl)-1-piperazinyl]ethyl]-3-phenyl-2-imidazolidinone]: the IC50 turned out to be 3.2 nM. Same read-out and setting: under `CS(=O)(=O)CCCN1CCN(c2cccc3c2OCC3)CC1` [Compound 1d, 1-(2,3-Dihydrobenzofuran-7-yl)-4-(3-methylsulfonyl-1-propyl)piperazine] stands 190 nM. As for `CC1(C)Cc2cccc(C3CCN(CCCCN4CCN(C5CCCCC5)C4=O)CC3)c2O1` [Compound 11a, 1-Cyclohexyl-3-[4-[4-(2,3-dihydro-2,2-dimethylbenzofuran-7-yl)-1-piperidinyl]-1-butyl]-2-imidazolidinone], the IC50 amounted to 3.5 nM. As for `CC1(C)Cc2cc(F)cc(N3CCN(CCCCN4CCN(C5CCCCC5)C4=O)CC3)c2O1` [Compound 2mm], the IC50 amounted to 1.7 nM. Same read-out and setting: the result for `O=C1N(CCN2CCN(c3cccc4ccsc34)CC2)CCN1c1ccccc1` [Compound 2t, 1-[2-(4-Benzo[b]thiophen-7-yl-1-piperazinyl)ethyl]-3-phenyl-2-imidazolidinone] reads 15 nM; that for `O=C1N(CCN2CCN(c3cccc4c3NCC4)CC2)CCN1C1CCCC1` [Compound 9a, 1-Cyclopentyl-3-[2-[4-(7-indolinyl)-1-piperazinyl]ethyl]-2-imidazolidinone], 230 nM. For the compound `O=S(=O)(CCN1CCN(c2cccc3c2OCC3)CC1)C1CCCCC1` [Compound 6a, 1-(2-Cyclohexylsulfonyl-1-ethyl)-4-(2,3-dihydrobenzofuran-7-yl)piperazine], the IC50 came out at 220 nM. For the compound `CCN1CCN(CCCN2CCN(c3cccc4c3OCCO4)CC2)C1=O` [Compound 4b, 1-[3-[4-(1,4-Benzodioxan-5-yl)-1-piperazinyl]-1-propyl]-3-ethyl-2-imidazolidinone], the IC50 came to 40 nM. On to `O=C1N(CCN2CCN(c3cccc4ccoc34)CC2)CCN1c1ccccc1` [Compound 2m, 1-[2-[4-Benzofuran-7-yl-1-piperazinyl]ethyl]-3-phenyl-2-imidazolidinone], for which the IC50 was 12 nM. On to `CC1(C)COc2c(N3CCN(CCCCCCN4CCN(C5CCCC5)C4=O)CC3)cccc21` [Compound 14c], for which the half-maximal inhibitory concentration (IC50) came out at 7.5 nM.

As a reminder, the ED50 is the dose that gives a 50% effect, or the effect in half of the subjects. A higher ED50 goes with a need for a large dose. The term IC50 denotes the concentration needed to halve the response being measured.

Source of the values: US5753661A, “Fused benzo compounds containing a nitrogen heterocycle for the treatment of central nervous system disorders” (priority 1992, dated 1998).
